Results on 30 molecules are retold here after patent US20220024906A1, “COMPOUNDS AND COMPOSITIONS FOR TREATING CONDITIONS ASSOCIATED WITH STING ACTIVITY” (IFM Due, Inc., priority 2020, published 2022).

pEC50: −log10 of the molar value.

The assay has as its target T1, hSTING (Homo sapiens, UniProt Q86WV6, G230A/H232R/R293Q/R71H).
T1 construct: host or cells: THP1-Dual KO-IFNAR2 cells
The assay is described as follows: STING reporter assay (luciferase) in THP1-Dual KO-IFNAR2 cells stimulated with 2′3′cGAMP. It counts as cell-based. The note with it: 15 μM 2′3′cGAMP transfected, 24 h, luciferase reporter activity. As to the method:
STING pathway activation by the compounds described herein was measured using THP1-Dual™ cells (KO-IFNAR2).
THP1-Dual™ KO-IFNAR2 Cells (obtained from invivogen) were maintained in RPMI, 10% FCS, 5 ml P/S, 2 mM L-glut, 10 mM Hepes, and 1 mM sodium pyruvate. Compounds were spotted in empty 384 well tissue culture plates (Greiner 781182) by Echo for a final concentration of 0.0017-100 μM. Cells were plated into the TC plates at 40 μL per well, 2×10E6 cells/mL. For activation with STING ligand, 2′3′cGAMP (MW 718.38, obtained from Invivogen), was prepared in Optimem media.
The following solutions were prepared for each 1×384 plate: • Solution A: 2 mL Optimem with one of the following stimuli: • 60 μL of 10 mM 2′3′cGAMP→150 μM stock • Solution B: 2 mL Optimem with 60 μL Lipofectamine 2000→Incubate 5 min at RT
2 mL of solution A and 2 ml Solution B was mixed and incubated for 20 min at room temperature (RT). 20 μL of transfection solution (A+B) was added on top of the plated cells, with a final 2′3′cGAMP concentration of 15 μM. The plates were then centrifuged immediately at 340 g for 1 minute, after which they were incubated at 37° C., 5% CO2, >98% humidity for 24 h. Luciferase reporter activity was then measured. EC50 values were calculated by using standard methods known in the art.
Luciferase reporter assay: 10 μL of supernatant from the assay was transferred to white 384-plate with flat bottom and squared wells. One pouch of QUANTI-Luc™ Plus was dissolved in 25 mL of water. 100 μL of QLC Stabilizer per 25 mL of QUANTI-Luc™ Plus solution was added. 50 μL of QUANTI-Luc™ Plus/QLC solution per well was then added. Luminescence was measured on a Platereader (e.g., Spectramax I3X (Molecular Devices GF3637001)).
Luciferase reporter activity was then measured. EC50 values were calculated by using standard methods known in the art.
(In general: A reporter such as luciferase makes a cellular process visible.)

T1 sequence (Q86WV6 whole entry R71H/G230A/H232R/R293Q): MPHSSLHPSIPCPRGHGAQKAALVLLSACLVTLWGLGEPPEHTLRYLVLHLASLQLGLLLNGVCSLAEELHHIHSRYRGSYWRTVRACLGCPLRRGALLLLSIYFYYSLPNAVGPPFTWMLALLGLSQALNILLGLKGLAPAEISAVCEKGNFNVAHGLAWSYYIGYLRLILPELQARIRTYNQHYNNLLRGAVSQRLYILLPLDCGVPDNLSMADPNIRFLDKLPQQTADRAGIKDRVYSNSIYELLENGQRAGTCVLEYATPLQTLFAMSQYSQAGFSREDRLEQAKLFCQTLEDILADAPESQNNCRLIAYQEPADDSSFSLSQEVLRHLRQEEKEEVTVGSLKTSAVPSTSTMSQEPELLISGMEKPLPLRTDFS

By pEC50 is commonly meant the EC50 on a negative log10 scale, so that one unit is a factor of ten. Molecule `Cn1ccc(CC(=O)Nc2c[nH]c3ccc(-c4cnn(-c5ccc(C(F)(F)F)cc5)c4)cc23)n1` [Compound 168, 2-(1-methyl-1H-pyrazol-3-yl)-N-(5-(1-(4-(trifluoromethyl)phenyl)-1H-pyrazol-4-yl)-1H-indol-3-yl)acetamide] showed a pEC50 of 6.00 to 6.70. `O=C(CCc1nccs1)Nc1c[nH]c2ccc(-c3cnn(-c4ccc(C(F)(F)F)cc4)c3)cc12` [Compound 148, 3-(thiazol-2-yl)-N-(5-(1-(4-(trifluoromethyl)phenyl)-1H-pyrazol-4-yl)-1H-indol-3-yl)propanamide] had a pEC50 of 6.00 to 6.70.

In the case of `Cc1cc(CC(=O)Nc2c[nH]c3ccc(-c4cnn(-c5ccc(C(F)(F)F)cc5)c4)cc23)on1` [Compound 144, 2-(3-methylisoxazol-5-yl)-N-(5-(1-(4-(trifluoromethyl)phenyl)-1H-pyrazol-4-yl)-1H-indol-3-yl)acetamide], the pEC50 is 6.00 to 6.70.

For `O=C(CCc1ccc(C(F)(F)F)nc1)Nc1c[nH]c2cc(F)c(F)cc12` [Compound 117, N-(5,6-difluoro-1H-indol-3-yl)-3-(6-(trifluoromethyl)pyridin-3-yl)propanamide], the pEC50 was 5.30 to 6.00.

As for `O=C(CC1(O)CCC1)Nc1c[nH]c2ccc(-c3cnn(-c4ccc(C(F)(F)F)cc4)c3)cc12` [Compound 162, 2-(1-hydroxycyclobutyl)-N-(5-(1-(4-(trifluoromethyl)phenyl)-1H-pyrazol-4-yl)-1H-indol-3yl)acetamide], the pEC50 is 6.00 to 6.70. Consider `C/C(=C\c1ccccn1)C(=O)Nc1c[nH]c2cc(F)c(F)cc12` [Compound 109, (E)-N-(5,6-difluoro-1H-indol-3-yl)-2-methyl-3-(pyridin-2-yl)acrylamide], for which the pEC50 is 5.30 to 6.00. To `CC(C)(Oc1ccccc1)C(=O)Nc1c[nH]c2cc(F)c(F)cc12` [Compound 102, N-(5,6-difluoro-1H-indol-3-yl)-2-methyl-2-phenoxypropanamide] belongs 4.00 to 5.30. To `CCOc1cccc(CCC(=O)Nc2c[nH]c3cc(F)c(F)cc23)c1` [Compound 106, N-(5,6-difluoro-1H-indol-3-yl)-3-(3-ethoxyphenyl)propanamide] belongs 6.00 to 6.70; to `O=C(CN1CCOC1=O)Nc1c[nH]c2ccc(-c3cnn(-c4ccc(C(F)(F)F)cc4)c3)cc12` [Compound 161, 2-(2-oxooxazolidin-3-yl)-N-(5-(1-(4-(trifluoromethyl)phenyl)-1H-pyrazol-4-yl)-1H-indol-3-yl)acetamide], 6.00 to 6.70.

Take `O=C(Cc1ccc(OC(F)(F)F)cc1)Nc1c[nH]c2cc(F)c(F)cc12` [Compound 129, N-(5,6-difluoro-1H-indol-3-yl)-2-(4-(trifluoromethoxy)phenyl)acetamide]: the pEC50 was 5.30 to 6.00.

With `CC(Oc1ccc(C(F)(F)F)cc1)C(=O)Nc1c[nH]c2cc(F)c(F)cc12` (stereo not drawn) [Compound 131, N-(5,6-difluoro-1H-indol-3-yl)-2-(4-(trifluoromethyl)phenoxy)propanamide], the pEC50 was 5.30 to 6.00. For `Cc1cc(CC(=O)Nc2c[nH]c3cc(F)c(F)cc23)cnc1N1CCC(F)(F)CC1` [Compound 126, N-(5,6-difluoro-1H-indol-3-yl)-2-(6-(4,4-difluoropiperidin-1-yl)-5-methylpyridin-3-yl)acetamide], the pEC50 is 5.30 to 6.00. Then `O=C(CC1CC(F)(F)C1)Nc1c[nH]c2ccc(-c3cnn(-c4ccc(C(F)(F)F)cc4)c3)cc12` [Compound 157, 2-(3,3-difluorocyclobutyl)-N-(5-(1-(4-(trifluoromethyl)phenyl)-1H-pyrazol-4-yl)-1H-indol-3-yl)acetamide], with 6.00 to 6.70.

`Cc1nc(CC(=O)Nc2c[nH]c3ccc(-c4cnn(-c5ccc(C(F)(F)F)cc5)c4)cc23)n[nH]1` [Compound 150, 2-(5-methyl-1H-1,2,4-triazol-3-yl)-N-(5-(1-(4-(trifluoromethyl)phenyl)-1H-pyrazol-4-yl)-1H-indol-3-yl)acetamide]: the pEC50 was 5.30 to 6.00. Take `O=C(Cc1cccc(OC(F)F)c1)Nc1c[nH]c2cc(F)c(F)cc12` [Compound 127, N-(5,6-difluoro-1H-indol-3-yl)-2-(3-(difluoromethoxy)phenyl)acetamide]: the pEC50 is 4.00 to 5.30. Turning to `O=C(CCn1cccn1)Nc1c[nH]c2ccc(-c3cnn(-c4ccc(C(F)(F)F)cc4)c3)cc12` [Compound 143, 3-(1H-pyrazol-1-yl)-N-(5-(1-(4-(trifluoromethyl)phenyl)-1H-pyrazol-4-yl)-1H-indol-3-yl)propanamide], the pEC50 was 6.00 to 6.70. To `N#Cc1cccc(/C=C/C(=O)Nc2c[nH]c3cc(F)c(F)cc23)c1` [Compound 135, (E)-3-(3-cyanophenyl)-N-(5,6-difluoro-1H-indol-3-yl)acrylamide] belongs 6.00 to 6.70; to `O=C(CN1CCCC1=O)Nc1c[nH]c2ccc(-c3cnn(-c4ccc(C(F)(F)F)cc4)c3)cc12` [Compound 166, 2-(2-oxopyrrolidin-1-yl)-N-(5-(1-(4-(trifluoromethyl)phenyl)-1H-pyrazol-4-yl)-1H-indol-3-yl)acetamide], 5.30 to 6.00; to `C[C@H](C(=O)Nc1c[nH]c2ccc(-c3cnn(-c4ccc(C(F)(F)F)cc4)c3)cc12)N1CCCC1=O` [Compound 156, (R)-2-(2-oxopyrrolidin-1-yl)-N-(5-(1-(4-(trifluoromethyl)phenyl)-1H-pyrazol-4-yl)-1H-indol-3-yl)propanamide], 5.30 to 6.00. `CCOc1cccc(/C=C/C(=O)Nc2c[nH]c3cc(F)c(F)cc23)c1` [Compound 128, (E)-N-(5,6-difluoro-1H-indol-3-yl)-3-(3-ethoxyphenyl)acrylamide] showed a negative-log EC50 (pEC50) of 6.00 to 6.70.

With `O=C(Cc1ncc[nH]1)Nc1c[nH]c2ccc(-c3cnn(-c4ccc(C(F)(F)F)cc4)c3)cc12` [Compound 149, 2-(1H-imidazol-2-yl)-N-(5(1-(4-(trifluoromethyl)phenyl)-1H-pyrazol-4-yl)-1H-indol-3-yl)acetamide], the pEC50 was 4.00 to 5.30. Then `O=C(CCN1CCOC1=O)Nc1c[nH]c2ccc(-c3cnn(-c4ccc(C(F)(F)F)cc4)c3)cc12` [Compound 167, 3-(2-oxooxazolidin-3-yl)-N-(5-(1-(4-(trifluoromethyl)phenyl)-1H-pyrazol-4-yl)-1H-indol-3-yl)propanamide], with 6.00 to 6.70; and `O=C(Nc1c[nH]c2ccc(-c3cnn(-c4ccc(C(F)(F)F)cc4)c3)cc12)[C@@H](O)C1CCCCC1` [Compound 152, (S)-2-cyclohexyl-2-hydroxy-N-(5-(1-(4-(trifluoromethyl)phenyl)-1H-pyrazol-4-yl)-1H-indol-3-yl)acetamide], with 5.30 to 6.00; and `O=C(CCc1cn[nH]c1)Nc1c[nH]c2ccc(-c3cnn(-c4ccc(C(F)(F)F)cc4)c3)cc12` [Compound 140, 3-(1H-pyrazol-4-yl)-N-(5-(1-(4-(trifluoromethyl)phenyl)-1H-pyrazo1-4-yl)-1H-indol-3-yl)propanamide], with 6.00 to 6.70. The molecule `CCOc1ccc(CC(=O)Nc2c[nH]c3cc(F)c(F)cc23)cc1C(F)(F)F` [Compound 103, N-(5,6-difluoro-1H-indol-3-yl)-2-(4-ethoxy-3-(trifluoromethyl)phenyl)acetamide] showed a pEC50 of 5.30 to 6.00.

Turning to `COc1cccc(N2CC(C(=O)Nc3c[nH]c4cc(F)c(F)cc34)CC2=O)c1` (stereo not drawn) [Compound 112, N-(5,6-difluoro-1H-indol-3-yl)-1-(3-methoxyphenyl)-5-oxopyrrolidine-3-carboxamide], the negative logarithm of the EC50 (pEC50) was 4.00 to 5.30.

On to `NC1(CC(=O)Nc2c[nH]c3ccc(-c4cnn(-c5ccc(C(F)(F)F)cc5)c4)cc23)CCCCC1` [Compound 151, 2-(1-aminocyclohexyl)-N-(5-(1-(4-(trifluoromethyl)phenyl)-1H-pyrazol-4-yl)-1H-indol-3-yl)acetamide], for which the pEC50 is 5.30 to 6.00.

In the case of `O=C(Cc1ncc(F)cn1)Nc1c[nH]c2ccc(-c3cnn(-c4ccc(C(F)(F)F)cc4)c3)cc12` [Compound 145, 2-(5-fluoropyrimidin-2-yl)-N-(5-(1-(4-(trifluoromethyl)phenyl)-1H-pyrazol-4-yl)-1H-indol-3-yl)acetamide], the pEC50 is 6.00 to 6.70.

With `O=C(CCN1CCCC1=O)Nc1c[nH]c2ccc(-c3cnn(-c4ccc(C(F)(F)F)cc4)c3)cc12` [Compound 155, 3-(2-oxopyrrolidin-1-yl)-N-(5-(1-(4-(trifluoromethyl)phenyl)-1H-pyrazol-4-yl)-1H-indol-3-yl)propanamide], the negative-log EC50 (pEC50) is 6.00 to 6.70. Then `O=C(Nc1c[nH]c2cc(F)c(F)cc12)C1CCN(S(=O)(=O)c2ccc(F)cc2)C1` (stereo not drawn) [Compound 111, N-(5,6-difluoro-1H-indol-3-yl)-1-((4-fluorophenyl)sulfonyl)pyrrolidine-3-carboxamide], with 5.30 to 6.00.
